The record followed here is patent publication US11053475B2, “Methods of expanding hematopoietic stem cells, compositions, and methods of use thereof” (WISCONSIN ALUMNI RESEARCH FOUNDATION, priority 2015, dated 2021).

Test [1] concerns Lin- hematopoietic precursors from E14.5 fetal livers. Nature of the test: Erythroid maturation (CD71/Ter119, R1-R5) of E14.5 fetal liver hematopoietic precursors, flow cytometry. The format is cell-based, mouse. As to conditions: Lin- HSPCs from fetal liver, DMSO as control, 3 days. On the procedure:
Primary erythroid precursor cell isolation. Primary erythroid precursors were isolated from E14.5 fetal livers using the EasySep™ negative selection Mouse Hematopoietic Progenitor Cell Enrichment Kit (StemCell Technologies). Briefly, fetal livers were dissociated by pipetting and resuspended at 5×10^7 cell/ml in PBS containing 2% FBS, 2.5 mM EDTA, and 10 mM glucose. EasySep™ Mouse Hematopoietic Progenitor Cell Enrichment Cocktail was added at 50 μg/ml supplemented with 2.5 μg/ml biotin-conjugated CD71 antibody (eBioscience). After 15 min incubation on ice, the cells were washed by centrifugation for […] at 1200 rpm at 4° C. and resuspended at 5×10^7 cell/ml in PBS containing 2% FBS, 2.5 mM EDTA, and 10 mM glucose, and EasySep™ Biotin Selection Cocktail was added at 100 μg/ml. After 15 min incubation at 4° C., EasySep™ Mouse Progenitor Magnetic Microparticles were added at 50 μg/ml. […]
Flow cytometry. […] APC-conjugated antibody CD31 (MEC13.3, Biolegend), PE-conjugated antibody c-Kit (2B8, eBioscience), PerCP-Cy5.5-conjugated antibody Scal (D7, eBioscience), APC-conjugated antibody Ter119 (TER119, eBioscience) and PE-conjugated CD71 (R17217, eBioscience) were used for flow cytometry and Fluorescence Activated Cell Sorting (FACS). Samples were analyzed on a FACSAria™ II cell sorter (BD Biosciences). […]
(In general: Flow cytometry measures light scatter and fluorescence of single cells or particles in a stream.)

In test [2] the test system is Gata2 expression. Put plainly: RT-PCR and Western blot of Gata2/GATA-2 and GATA-2 target genes in fetal liver cells and FACS-sorted R2 cells. Type of test: cell-based, mouse. As to conditions: total fetal liver cells, compound treatment, 72 h. On the procedure:
Cell culture. G1E-ER-GATA-1 cells were cultured with or without 1 μM estradiol as previously described. Fetal liver erythroid precursor cells were cultured and maintained at a density of 2.5×10^5−1×10^6 cells/ml in StemPro®-34 (Gibco) supplemented with 10% nutrient supplement (Gibco), 2 mM L-glutamine (Cellgro), 1% Penicillin/streptomycin (Cellgro), 100 μM monothioglycerol (Sigma-Aldrich), 1 μM dexamethasone (Sigma-Aldrich), 0.5 U/ml of erythropoietin, and 1% conditioned medium from a kit ligand-producing CHO cell line for expansion. Cells were cultured in a humidified incubator at 37° C. (5% carbon dioxide).
Quantitative real-time RT-PCR. […] Real-time PCR was performed with SYBR green master mix (Applied Biosystems) and Product accumulation was monitored by SYBR green fluorescence using either a StepOnePlus™ or Viia™7 instrument (Applied Biosystems). Relative expression was determined from a standard curve of serial dilutions of cDNA samples, and values were normalized to 18S RNA expression. […]
Flow cytometry. […] APC-conjugated antibody CD31 (MEC13.3, Biolegend), PE-conjugated antibody c-Kit (2B8, eBioscience), PerCP-Cy5.5-conjugated antibody Scal (D7, eBioscience), APC-conjugated antibody Ter119 (TER119, eBioscience) and PE-conjugated CD71 (R17217, eBioscience) were used for flow cytometry and Fluorescence Activated Cell Sorting (FACS). […]
Background: Immunoblotting shows a protein as a band on a membrane.

With `CCCCCCCCCCCCC/C=C/[C@@H](O)C(N)CO[C@H]1O[C@H](CO)[C@@H](O[C@@H]2O[C@H](CO)[C@H](O)[C@H](O)[C@H]2O)[C@H](O)[C@@H]1O` (stereo partly drawn) [lactosylsphingosine], the “activity on erythropoiesis (flow analysis, R1-R5), compared with psychosine” value in test [1] was “not”.
In the case of `CCCCCCCCCCCCC/C=C/C(O)C(N)CO[C@@H]1O[C@H](CO)[C@H](O)[C@H](O)[C@H]1O` (stereo partly drawn) [psychosine, galactosylsphingosine], in test [2], the “Gata2 mRNA level vs DMSO-treated control” value is reported as 2-3 fold and the “Gata2 primary transcript level vs DMSO-treated control” value is listed as 2-3 fold.
